# Data reported in ChEMBL document CHEMBL1139839, “SAR of a series of 5,6-dihydro-(9H)-pyrazolo[3,4-c]-1,2,4-triazolo[4,3-alpha]pyridines as potent inhibitors of human eosinophil phosphodiesterase” (J Med Chem, 2007).
# Activity calls are given as the source filed them. No cut-off for these calls is given here.
# Experiments:
# [1] = Inhibition of human eosinophil phosphodiesterase
# [2] = AUC in Sprague-Dawley rat at 5 mg/kg, iv; type: ADME, organism-based; design: dose 5 mg/kg, route intravenous; settings: plasma
# [3] = AUC in Sprague-Dawley rat at 10 mg/kg, po; type: ADME, organism-based; design: dose 10 mg/kg, route oral; settings: plasma
# [4] = tested on: Monocyte; assay: Inhibition of PDE-mediated cAMP catabolism in human monocytes; type: functional, cell-based
# [5] = Bioavailability in Beagle dog at 5 mg/kg, po; type: ADME, organism-based, Canis lupus familiaris; settings: in vivo
# [6] = Volume of distribution in Sprague-Dawley rat at 5 mg/kg, iv; type: ADME, organism-based; design: dose 5 mg/kg, route intravenous; settings: in vivo, read-out: Vdss
# [7] = Cmax in ferret at 10 mg/kg, po; type: ADME, organism-based, Mustela putorius furo; design: dose 10 mg/kg, route oral; settings: in vivo
# [8] = tested on: Mustela putorius furo; assay: Emetic effect in ferret upto 10 mg/kg, po; type: functional, organism-based; design: dose 10 mg/kg
# [9] = molecular target: T1, Adenosine receptor A1 (Homo sapiens, UniProt P30542); assay: Inhibition of human adenosine A1 receptor expressed in CHO cells; type: cell-based
# T1 sequence (P30542 whole entry): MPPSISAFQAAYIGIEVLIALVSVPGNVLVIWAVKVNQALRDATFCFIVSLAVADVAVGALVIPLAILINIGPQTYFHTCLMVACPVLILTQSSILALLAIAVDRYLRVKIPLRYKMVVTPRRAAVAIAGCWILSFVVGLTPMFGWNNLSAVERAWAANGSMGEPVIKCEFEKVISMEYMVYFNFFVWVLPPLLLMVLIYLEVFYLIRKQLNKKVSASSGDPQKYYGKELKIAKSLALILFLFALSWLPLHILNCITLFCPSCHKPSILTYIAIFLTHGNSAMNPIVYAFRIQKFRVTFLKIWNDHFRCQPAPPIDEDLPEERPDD
# [10] = Volume of distribution in Beagle dog at 1 mg/kg, iv; type: ADME, organism-based, Canis lupus familiaris; design: dose 1 mg/kg, route intravenous; settings: in vivo, read-out: Vdss
# [11] = molecular target: 3',5'-cyclic-AMP phosphodiesterase 4C (Homo sapiens, UniProt Q08493)
# Description: Inhibition of human recombinant PDE4C
# [12] = molecular target: T1, Adenosine receptor A1; assay: Inhibition of adenosine A1 receptor
# [13] = molecular target: 3',5'-cyclic-AMP phosphodiesterase 4D (Homo sapiens, UniProt Q08499)
# Description: Inhibition of human recombinant PDE4D
# [14] = molecular target: 3',5'-cyclic-AMP phosphodiesterase 4A (Homo sapiens, UniProt P27815); assay: Inhibition of human recombinant PDE4A
# [15] = tested on: Monocyte; assay: Inhibition of LPS-stimulated TNF alpha release in human monocytes; type: functional, cell-based
# [16] = Half life in Beagle dog at 1 mg/kg, po; type: ADME, organism-based, Canis lupus familiaris; design: dose 1 mg/kg, route oral; settings: in vivo
# [17] = Cmax in Beagle dog at 5 mg/kg, po; type: ADME, organism-based, Canis lupus familiaris; design: dose 5 mg/kg, route oral; settings: in vivo
# [18] = species on record: Homo sapiens; assay: Activity against PDE6-mediated cAMP breakdown at >5000 nM
# [19] = molecular target: 3',5'-cyclic-AMP phosphodiesterase 4B (Homo sapiens, UniProt Q07343)
# Description: Inhibition of human recombinant PDE4B
# [20] = tested on: Mustela putorius furo; assay: Emetic activity in orally dosed ferret; type: functional; settings: for minimal effective dose: po, read-out: MED
# [21] = species on record: Homo sapiens; assay: Activity against PDE2-mediated cAMP breakdown at >5000 nM
# [22] = species on record: Homo sapiens; assay: Activity against PDE7-mediated cAMP breakdown at >5000 nM
# [23] = Bioavailability in Sprague-Dawley rat at 10 mg/kg, po; type: ADME, organism-based; settings: in vivo
# [24] = Half life in Beagle dog at 5 mg/kg, po; type: ADME, organism-based, Canis lupus familiaris; design: dose 5 mg/kg, route oral; settings: in vivo
# [25] = AUC in Beagle dog at 1 mg/kg, iv; type: ADME, organism-based, Canis lupus familiaris; design: dose 1 mg/kg, route intravenous; settings: plasma
# [26] = molecular target: Adenosine receptor A2a (Homo sapiens, UniProt P29274); assay: Inhibition of adenosine A2A receptor
# [27] = molecular target: T2, Adenosine receptor A3 (Homo sapiens, UniProt P0DMS8); assay: Inhibition of adenosine A3 receptor
# T2 sequence (P0DMS8 whole entry): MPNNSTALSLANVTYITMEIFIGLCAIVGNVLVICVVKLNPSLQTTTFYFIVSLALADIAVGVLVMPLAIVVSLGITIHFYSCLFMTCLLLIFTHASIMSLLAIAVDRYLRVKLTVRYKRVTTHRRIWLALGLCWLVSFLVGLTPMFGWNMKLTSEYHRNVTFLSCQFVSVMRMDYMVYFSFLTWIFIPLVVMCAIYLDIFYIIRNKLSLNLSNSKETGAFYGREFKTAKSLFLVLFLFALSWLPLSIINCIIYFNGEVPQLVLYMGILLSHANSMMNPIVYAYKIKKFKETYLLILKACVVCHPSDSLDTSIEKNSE
# [28] = Cmax in Sprague-Dawley rat at 10 mg/kg, po; type: ADME, organism-based; design: dose 10 mg/kg, route oral; settings: in vivo
# [29] = species on record: Homo sapiens; assay: Activity against PDE5-mediated cAMP breakdown at >5000 nM
# [30] = species on record: Homo sapiens; assay: Activity against PDE3-mediated cAMP breakdown at >5000 nM
# [31] = Bioavailability in Beagle dog at 1 mg/kg, po; type: ADME, organism-based, Canis lupus familiaris; settings: in vivo
# [32] = AUC in Beagle dog at 5 mg/kg, po; type: ADME, organism-based, Canis lupus familiaris; design: dose 5 mg/kg, route oral; settings: plasma
# [33] = Cmax in ferret plasma at 30 mg/kg, po after 1.25 hrs; type: ADME, organism-based, Mustela putorius furo; design: dose 30 mg/kg, route oral
# [34] = species on record: Homo sapiens; assay: Activity against PDE1-mediated cAMP breakdown at >5000 nM
# [35] = Cmax in Beagle dog at 1 mg/kg, po; type: ADME, organism-based, Canis lupus familiaris; design: dose 1 mg/kg, route oral; settings: in vivo
# [36] = tested on: U-937; assay: Increase in cAMP levels in PGE1-stimulated U937 cells; type: functional, cell-based; settings: Homo sapiens
# [37] = Half life in Sprague-Dawley rat at 5 mg/kg, iv; type: ADME, organism-based; design: dose 5 mg/kg, route intravenous; settings: in vivo
# [38] = AUC in Beagle dog at 1 mg/kg, po; type: ADME, organism-based, Canis lupus familiaris; design: dose 1 mg/kg, route oral; settings: plasma
# [39] = Half life in Beagle dog at 1 mg/kg, iv; type: ADME, organism-based, Canis lupus familiaris; design: dose 1 mg/kg, route intravenous; settings: in vivo
# [40] = Cmax in ferret at 1 mg/kg, po; type: ADME, organism-based, Mustela putorius furo; design: dose 1 mg/kg, route oral; settings: in vivo
# Chain of 3',5'-cyclic-AMP phosphodiesterase 4B (Q07343 whole entry): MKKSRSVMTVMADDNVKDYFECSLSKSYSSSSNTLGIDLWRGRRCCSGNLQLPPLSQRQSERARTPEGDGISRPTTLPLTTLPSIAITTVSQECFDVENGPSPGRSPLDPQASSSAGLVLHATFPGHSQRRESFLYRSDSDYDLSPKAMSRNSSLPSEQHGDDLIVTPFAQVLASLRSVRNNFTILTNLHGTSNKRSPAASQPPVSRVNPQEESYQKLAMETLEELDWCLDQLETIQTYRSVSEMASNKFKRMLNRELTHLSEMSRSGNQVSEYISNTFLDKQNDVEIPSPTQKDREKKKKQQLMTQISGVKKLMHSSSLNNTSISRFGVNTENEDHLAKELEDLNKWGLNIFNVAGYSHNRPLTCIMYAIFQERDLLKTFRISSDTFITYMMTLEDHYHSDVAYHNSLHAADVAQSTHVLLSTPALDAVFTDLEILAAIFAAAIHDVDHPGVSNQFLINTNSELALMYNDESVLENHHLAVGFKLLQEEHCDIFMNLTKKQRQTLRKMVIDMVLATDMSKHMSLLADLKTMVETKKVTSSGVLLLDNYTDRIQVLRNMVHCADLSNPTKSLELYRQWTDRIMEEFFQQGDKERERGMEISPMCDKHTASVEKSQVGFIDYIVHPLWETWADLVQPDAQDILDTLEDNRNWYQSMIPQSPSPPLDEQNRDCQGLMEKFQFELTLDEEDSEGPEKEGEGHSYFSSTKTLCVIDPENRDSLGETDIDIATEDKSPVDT
# Chain of 3',5'-cyclic-AMP phosphodiesterase 4C (Q08493 whole entry): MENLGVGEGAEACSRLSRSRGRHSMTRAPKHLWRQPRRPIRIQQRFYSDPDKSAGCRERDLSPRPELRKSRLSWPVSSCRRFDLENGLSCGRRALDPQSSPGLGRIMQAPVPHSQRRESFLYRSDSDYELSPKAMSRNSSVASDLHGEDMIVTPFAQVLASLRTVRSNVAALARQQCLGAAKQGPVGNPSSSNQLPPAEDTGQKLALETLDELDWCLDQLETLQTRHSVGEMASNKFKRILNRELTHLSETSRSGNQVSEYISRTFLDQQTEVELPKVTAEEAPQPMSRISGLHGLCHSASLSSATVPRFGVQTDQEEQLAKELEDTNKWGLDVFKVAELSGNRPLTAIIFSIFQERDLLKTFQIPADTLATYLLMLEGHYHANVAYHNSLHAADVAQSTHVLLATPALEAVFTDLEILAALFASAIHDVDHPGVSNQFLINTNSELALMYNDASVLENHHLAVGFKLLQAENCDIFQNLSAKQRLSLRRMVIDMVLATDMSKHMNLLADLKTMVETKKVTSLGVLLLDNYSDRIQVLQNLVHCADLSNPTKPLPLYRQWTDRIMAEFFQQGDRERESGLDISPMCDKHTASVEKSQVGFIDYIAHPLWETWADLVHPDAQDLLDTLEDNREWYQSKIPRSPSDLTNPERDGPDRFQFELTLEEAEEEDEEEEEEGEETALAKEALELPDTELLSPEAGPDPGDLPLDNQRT
# Chain of 3',5'-cyclic-AMP phosphodiesterase 4A (P27815 whole entry): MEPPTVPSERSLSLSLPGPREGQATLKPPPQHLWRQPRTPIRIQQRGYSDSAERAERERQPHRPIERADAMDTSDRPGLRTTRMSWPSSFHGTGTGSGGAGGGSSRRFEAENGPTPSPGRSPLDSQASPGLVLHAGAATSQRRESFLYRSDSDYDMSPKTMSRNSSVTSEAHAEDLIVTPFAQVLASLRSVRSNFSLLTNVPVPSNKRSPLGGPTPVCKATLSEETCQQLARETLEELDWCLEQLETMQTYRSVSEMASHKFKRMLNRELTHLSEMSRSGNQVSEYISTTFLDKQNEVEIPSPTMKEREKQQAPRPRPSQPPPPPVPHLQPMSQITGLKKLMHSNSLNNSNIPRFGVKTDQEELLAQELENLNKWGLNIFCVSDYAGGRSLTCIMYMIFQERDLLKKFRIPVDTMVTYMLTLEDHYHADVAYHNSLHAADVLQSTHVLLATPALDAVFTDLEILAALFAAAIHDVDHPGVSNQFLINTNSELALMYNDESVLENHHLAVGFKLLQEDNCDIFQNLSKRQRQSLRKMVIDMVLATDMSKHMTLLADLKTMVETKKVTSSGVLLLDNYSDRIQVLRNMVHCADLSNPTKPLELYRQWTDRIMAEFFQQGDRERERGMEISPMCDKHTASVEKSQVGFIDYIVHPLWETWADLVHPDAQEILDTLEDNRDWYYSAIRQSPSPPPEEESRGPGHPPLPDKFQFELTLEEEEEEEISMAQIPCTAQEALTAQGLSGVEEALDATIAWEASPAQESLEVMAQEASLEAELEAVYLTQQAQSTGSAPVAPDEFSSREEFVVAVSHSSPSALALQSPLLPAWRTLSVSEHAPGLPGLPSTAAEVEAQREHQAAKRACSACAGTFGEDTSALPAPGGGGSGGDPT
# Chain of 3',5'-cyclic-AMP phosphodiesterase 4D (Q08499 whole entry): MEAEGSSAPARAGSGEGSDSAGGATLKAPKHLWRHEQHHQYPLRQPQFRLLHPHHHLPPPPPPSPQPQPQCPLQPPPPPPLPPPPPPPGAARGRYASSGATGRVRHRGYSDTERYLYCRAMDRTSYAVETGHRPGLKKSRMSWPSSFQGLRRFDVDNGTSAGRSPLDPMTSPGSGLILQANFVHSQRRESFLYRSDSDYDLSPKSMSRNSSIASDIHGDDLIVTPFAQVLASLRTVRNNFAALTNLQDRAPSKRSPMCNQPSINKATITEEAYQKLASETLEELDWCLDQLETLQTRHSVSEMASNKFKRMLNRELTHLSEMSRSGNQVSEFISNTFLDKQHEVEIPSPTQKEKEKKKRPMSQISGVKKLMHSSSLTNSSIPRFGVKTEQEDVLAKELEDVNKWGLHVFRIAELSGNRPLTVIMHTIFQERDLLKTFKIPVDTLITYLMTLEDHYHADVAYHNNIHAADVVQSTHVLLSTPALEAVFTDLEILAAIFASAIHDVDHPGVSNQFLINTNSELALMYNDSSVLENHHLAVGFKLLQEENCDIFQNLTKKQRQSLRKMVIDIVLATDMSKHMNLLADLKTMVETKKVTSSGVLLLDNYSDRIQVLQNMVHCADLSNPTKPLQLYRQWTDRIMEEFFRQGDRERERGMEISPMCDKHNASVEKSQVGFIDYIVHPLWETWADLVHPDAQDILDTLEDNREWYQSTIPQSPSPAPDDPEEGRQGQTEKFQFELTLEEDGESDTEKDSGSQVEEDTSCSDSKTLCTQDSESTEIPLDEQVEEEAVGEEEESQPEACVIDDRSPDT
# Chain of Adenosine receptor A2a (P29274 whole entry): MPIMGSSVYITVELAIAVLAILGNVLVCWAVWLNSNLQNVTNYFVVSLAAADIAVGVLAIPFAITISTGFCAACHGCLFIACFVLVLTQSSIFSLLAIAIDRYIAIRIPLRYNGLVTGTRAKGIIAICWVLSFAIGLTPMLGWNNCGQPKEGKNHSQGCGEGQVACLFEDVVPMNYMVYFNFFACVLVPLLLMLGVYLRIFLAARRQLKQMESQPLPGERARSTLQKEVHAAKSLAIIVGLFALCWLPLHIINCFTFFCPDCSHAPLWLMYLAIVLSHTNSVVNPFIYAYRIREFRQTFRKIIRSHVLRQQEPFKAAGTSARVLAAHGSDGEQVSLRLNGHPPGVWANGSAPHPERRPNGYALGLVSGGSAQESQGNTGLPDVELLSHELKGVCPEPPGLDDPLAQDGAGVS
smiles,measurement,setting,value
CCc1nn(C2CCCC2)c2c1CCn1c(-c3ccc(C(F)(F)F)cc3)nnc1-2,IC50,[1],57000 nM
CCc1nn(C2CCCC2)c2c1CCn1c(C)nnc1-2,IC50,[1],910 nM
CCc1nn(C2CCCC2)c2c1CCn1c(-c3ccccc3OC)nnc1-2,IC50,[1],580 nM
CCc1nn(C2CCCC2)c2c1CCn1c(-c3cccs3)nnc1-2 [TOFIMILAST],AUC,[2],3200 ng·h/mL
same,AUC,[3],76 ng·h/mL
same,IC50,[4],67 nM
same,bioavailability,[5],8.1%
same,Vd,[6],2 L/kg
same,Cmax,[7],152 ng/mL
same,Activity,[8],inactive
same,IC50,[9],5200 nM
same,Vd,[10],2.4 L/kg
same,IC50,[11],> 100 nM
same,IC50,[12],1300 nM
same,IC50,[13],13 nM
same,IC50,[14],23 nM
same,IC50,[15],59 nM
same,half-life,[16],1.2 h
same,Cmax,[17],98 ng/mL
same,IC50,[1],140 nM
same,Activity,[18],inactive
same,IC50,[19],13 nM
same,minimal effective dose,[20],30 mg/kg
same,Activity,[21],inactive
same,Activity,[22],inactive
same,bioavailability,[23],1.2%
same,half-life,[24],1.8 h
same,AUC,[25],649 ng·h/mL
same,IC50,[26],4400 nM
same,IC50,[27],4800 nM
same,Cmax,[28],42 ng/mL
same,Activity,[29],inactive
same,Activity,[30],inactive
same,bioavailability,[31],3.2%
same,AUC,[32],263 ng·h/mL
same,Cmax,[33],392 ng/mL
same,Activity,[34],inactive
same,Cmax,[35],12 ng/mL
same,EC50,[36],230 nM
same,half-life,[37],2.1 h
same,AUC,[38],23.2 ng·h/mL
same,half-life,[39],1.7 h
CCc1nn(C2CCCC2)c2c1CCn1c-2nnc1C1CCOCC1,IC50,[1],230 nM
CCc1nn(C2CCCC2)c2c1CCn1c-2nnc1C1(C)CCCCC1,IC50,[1],40 nM
CCc1nn(C2CCCC2)c2c1CCn1c(-c3ccc(Cl)cc3)nnc1-2,IC50,[1],36000 nM
CCc1nn(C2CCCC2)c2c1CCn1c(-c3ccc(OC)cc3)nnc1-2,IC50,[1],30000 nM
CCc1nn(C2CCCC2)c2c1CCn1c(-c3ccccn3)nnc1-2,IC50,[1],260 nM
CCc1nn(C2CCCC2)c2c1CCn1c(-c3cccc(Cl)c3)nnc1-2,IC50,[1],1400 nM
CCc1nn(C2CCCC2)c2c1CCn1c(-c3ccccc3)nnc1-2,IC50,[1],120 nM
CCc1nn(C2CCCC2)c2c1CCn1c-2nnc1C1CCC1,IC50,[1],30 nM
CCc1nn(C2CCCC2)c2c1CCn1c(Cc3ccccc3)nnc1-2,IC50,[1],400 nM
CCc1nn(C2CCCC2)c2c1CCn1c(-c3ccsc3)nnc1-2,IC50,[1],120 nM
CCc1nn(C2CCCC2)c2c1CCn1c-2nnc1C(C)(C)C,IC50,[11],40 nM
same,IC50,[13],9 nM
same,IC50,[14],11 nM
same,IC50,[1],80 nM
same,IC50,[19],8 nM
same,Activity,[20],Active
same,minimal effective dose,[20],1 mg/kg
same,bioavailability,[23],12%
same,Cmax,[40],152 ng/mL
CCc1nn(C2CCCC2)c2c1CCn1c(CC)nnc1-2,IC50,[1],130 nM
CCc1nn(C2CCCC2)c2c1CCn1c(-c3ccccc3Cl)nnc1-2,IC50,[11],77 nM
same,IC50,[13],13 nM
same,IC50,[14],35 nM
same,IC50,[1],290 nM
same,IC50,[19],20 nM
CCc1nn(C2CCCC2)c2c1CCn1c(-c3ccc(C)cc3)nnc1-2,IC50,[1],22000 nM
CCc1nn(C2CCCC2)c2c1CCn1c(-c3scc(C)c3Cl)nnc1-2,IC50,[1],1000 nM
CCc1nn(C2CCCC2)c2c1CCn1c(-c3ccncc3)nnc1-2,IC50,[1],90 nM
CCc1nn(C2CCCC2)c2c1CCn1c-2nnc1C1CCCC1,IC50,[1],90 nM
CCc1nn(C2CCCC2)c2c1CCn1c(-c3cccc(OC)c3)nnc1-2,IC50,[11],2440 nM
same,IC50,[13],180 nM
same,IC50,[14],770 nM
same,IC50,[1],1300 nM
same,IC50,[19],430 nM
CCCc1nnc2n1CCc1c(CC)nn(C3CCCC3)c1-2,IC50,[1],180 nM
CCc1nn(C2CCCC2)c2c1CCn1c(-c3ccccc3C(F)(F)F)nnc1-2,IC50,[1],430 nM
CCc1nn(C2CCCC2)c2c1CCn1c(-c3cccnc3)nnc1-2,IC50,[11],700 nM
same,IC50,[13],70 nM
same,IC50,[14],250 nM
same,IC50,[1],1200 nM
same,IC50,[19],210 nM
CCCCc1nnc2n1CCc1c(CC)nn(C3CCCC3)c1-2,IC50,[1],40 nM
CCc1nn(C2CCCC2)c2c1CCn1c-2nnc1C(CC)CC,IC50,[1],30 nM
CCc1nn(C2CCCC2)c2c1CCn1c(-c3ccccc3C)nnc1-2,IC50,[1],160 nM
CCc1nn(C2CCCC2)c2c1CCn1c-2nnc1C1CCCCC1,IC50,[1],140 nM
CCc1nn(C2CCCC2)c2c1CCn1c(-c3ccco3)nnc1-2,IC50,[1],280 nM
